The values that follow come from ChEMBL document CHEMBL5625192, “Discovery of Ibrutinib-based BTK PROTACs with in vivo anti-inflammatory efficacy by inhibiting NF-κB activation” (Eur J Med Chem, 2023).

Holding throughout (type): cell-based
Test [1] has as its target T1, Protein cereblon/Tyrosine-protein kinase BTK (Homo sapiens, UniProt Q06187+Q96SW2). Briefly: PROTAC activity at CRBN/BTK in human Ramos cells assessed as induction of BTK degradation at 100 nM incubated for 24 hrs by Western blot analysis relative to control. Background: In western blotting, separated proteins are transferred to a membrane and probed.
Target sequence in this assay (Q06187 2-659 limits assumed): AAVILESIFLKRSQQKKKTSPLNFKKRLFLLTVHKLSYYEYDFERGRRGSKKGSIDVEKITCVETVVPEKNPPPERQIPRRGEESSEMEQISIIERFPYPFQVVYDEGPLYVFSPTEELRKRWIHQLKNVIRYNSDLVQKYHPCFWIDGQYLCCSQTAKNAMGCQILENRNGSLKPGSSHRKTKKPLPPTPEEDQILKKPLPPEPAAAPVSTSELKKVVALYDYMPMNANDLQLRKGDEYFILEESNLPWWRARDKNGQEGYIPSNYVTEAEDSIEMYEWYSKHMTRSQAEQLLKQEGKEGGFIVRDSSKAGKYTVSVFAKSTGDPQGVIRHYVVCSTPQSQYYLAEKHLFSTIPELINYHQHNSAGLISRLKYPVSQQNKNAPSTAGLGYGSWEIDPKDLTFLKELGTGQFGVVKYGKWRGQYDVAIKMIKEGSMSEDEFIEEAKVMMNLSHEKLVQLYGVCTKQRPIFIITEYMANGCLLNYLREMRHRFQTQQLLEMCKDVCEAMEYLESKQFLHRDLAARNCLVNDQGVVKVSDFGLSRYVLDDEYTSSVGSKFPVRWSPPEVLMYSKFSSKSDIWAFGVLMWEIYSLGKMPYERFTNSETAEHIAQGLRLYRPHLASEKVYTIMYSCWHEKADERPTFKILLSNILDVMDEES
Target sequence in this assay (Q96SW2 whole entry partner): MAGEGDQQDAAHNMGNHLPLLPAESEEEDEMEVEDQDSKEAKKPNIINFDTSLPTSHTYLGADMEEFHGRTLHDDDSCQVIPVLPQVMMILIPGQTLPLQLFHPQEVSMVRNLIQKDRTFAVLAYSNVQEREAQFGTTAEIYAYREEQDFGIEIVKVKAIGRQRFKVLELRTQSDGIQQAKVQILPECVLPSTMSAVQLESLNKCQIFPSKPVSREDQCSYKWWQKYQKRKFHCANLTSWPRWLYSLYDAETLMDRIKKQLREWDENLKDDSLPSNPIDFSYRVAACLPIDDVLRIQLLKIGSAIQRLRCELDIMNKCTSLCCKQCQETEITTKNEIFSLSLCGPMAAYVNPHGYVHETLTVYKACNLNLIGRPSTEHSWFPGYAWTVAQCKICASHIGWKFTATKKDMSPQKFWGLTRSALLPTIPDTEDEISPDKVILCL
The target in test [2] is T1, Protein cereblon/Tyrosine-protein kinase BTK. Nature of the test: PROTAC activity at CRBN/BTK in human Ramos cells assessed as induction of BTK degradation incubated for 24 hrs by Western blot analysis.
Target sequence in this assay (Q06187 whole entry): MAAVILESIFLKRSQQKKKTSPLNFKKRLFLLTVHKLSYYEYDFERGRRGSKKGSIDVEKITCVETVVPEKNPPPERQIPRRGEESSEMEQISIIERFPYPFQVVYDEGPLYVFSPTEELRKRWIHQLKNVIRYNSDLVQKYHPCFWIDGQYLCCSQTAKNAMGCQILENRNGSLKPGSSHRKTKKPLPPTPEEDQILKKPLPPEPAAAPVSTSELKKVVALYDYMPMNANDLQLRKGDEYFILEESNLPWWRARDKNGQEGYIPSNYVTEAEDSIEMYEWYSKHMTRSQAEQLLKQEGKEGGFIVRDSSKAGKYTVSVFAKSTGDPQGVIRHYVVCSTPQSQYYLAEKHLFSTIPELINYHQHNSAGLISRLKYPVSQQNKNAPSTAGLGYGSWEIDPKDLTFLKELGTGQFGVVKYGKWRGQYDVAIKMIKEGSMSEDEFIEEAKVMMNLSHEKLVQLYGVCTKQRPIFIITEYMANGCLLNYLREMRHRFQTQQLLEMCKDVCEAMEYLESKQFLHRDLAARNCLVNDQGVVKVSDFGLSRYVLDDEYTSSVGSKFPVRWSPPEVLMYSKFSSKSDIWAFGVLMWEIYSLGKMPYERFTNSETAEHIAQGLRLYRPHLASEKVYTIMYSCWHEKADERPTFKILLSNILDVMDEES
Target sequence in this assay (Q96SW2 whole entry): as the sequence (Q96SW2 whole entry partner) above
Test [3] shares this target. Briefly: PROTAC activity at CRBN/BTK in human Ramos cells assessed as induction of BTK degradation by measuring maximal efficacy incubated for 24 hrs by Western blot analysis relative to control.
Target sequence in this assay (Q06187 2-659 limits assumed): as the sequence (Q06187 2-659 limits assumed) above
Target sequence in this assay (Q96SW2 whole entry partner): as the sequence (Q96SW2 whole entry partner) above
Test [4] has the same target. Nature of the test: PROTAC activity at CRBN/BTK in human Ramos cells assessed as hook effect at 1000 nM incubated for 24 hrs by Western blot analysis.
Target sequence in this assay (Q06187 2-659 limits assumed): as the sequence (Q06187 2-659 limits assumed) above
Target sequence in this assay (Q96SW2 whole entry partner): as the sequence (Q96SW2 whole entry partner) above
The target is the same in test [5]. Briefly: PROTAC activity at CRBN/BTK in human Ramos cells assessed as hook effect at 10000 nM incubated for 24 hrs by Western blot analysis.
Target sequence in this assay (Q06187 2-659 limits assumed): as the sequence (Q06187 2-659 limits assumed) above
Target sequence in this assay (Q96SW2 whole entry partner): as the sequence (Q96SW2 whole entry partner) above
The target is the same in test [6]. Briefly: PROTAC activity at CRBN/BTK in human MINO cells assessed as induction of BTK degradation incubated for 24 hrs by Western blot analysis.
Target sequence in this assay (Q06187 whole entry): as the sequence (Q06187 whole entry) above
Target sequence in this assay (Q96SW2 whole entry): as the sequence (Q96SW2 whole entry partner) above
The target is the same in test [7]. Briefly: PROTAC activity at CRBN/BTK in human MINO cells assessed as induction of BTK degradation by measuring maximal efficacy incubated for 24 hrs by Western blot analysis relative to control.
Target sequence in this assay (Q06187 2-659 limits assumed): as the sequence (Q06187 2-659 limits assumed) above
Target sequence in this assay (Q96SW2 whole entry partner): as the sequence (Q96SW2 whole entry partner) above
Test [8] shares this target. Nature of the test: PROTAC activity at CRBN/BTK in human MINO cells assessed as hook effect at >10000 nM incubated for 24 hrs by Western blot analysis.
Target sequence in this assay (Q06187 2-659 limits assumed): as the sequence (Q06187 2-659 limits assumed) above
Target sequence in this assay (Q96SW2 whole entry partner): as the sequence (Q96SW2 whole entry partner) above
For test [9] the target is unchanged. Briefly: PROTAC activity at CRBN/BTK in human MINO cells assessed as hook effect upto 10000 nM incubated for 24 hrs by Western blot analysis.
Test [10] shares this target. Briefly: PROTAC activity at CRBN/BTK in human Ramos cells assessed as induction of BTK degradation at 100 nM measured within 4 hrs by Western blot analysis.
The target is the same in test [11]. Nature of the test: PROTAC activity at CRBN/BTK in human Ramos cells assessed as induction of BTK degradation at 100 nM measured after 8 hrs by Western blot analysis relative to control.
Test [12] shares this target. Briefly: PROTAC activity at CRBN/BTK in human Ramos cells assessed as induction of BTK degradation at 100 nM pretreated with ibrutinib for 2 hrs followed by compound treatment and measured after 8 hrs by Western blot analysis.
Test [13] shares this target. Nature of the test: PROTAC activity at CRBN/BTK in human Ramos cells assessed as induction of BTK degradation at 100 nM pretreated with pomalidomide for 2 hrs followed by compound treatment and measured after 8 hrs by Western blot analysis.
Test [14] shares this target. Nature of the test: PROTAC activity at CRBN/BTK in human Ramos cells assessed as induction of BTK degradation at 100 nM pretreated with MG132 for 2 hrs followed by compound treatment and measured after 8 hrs by Western blot analysis.
For test [15] the target is unchanged. Briefly: PROTAC activity at CRBN/BTK in human Ramos cells assessed as induction of BTK degradation at 100 nM pretreated with bafilomycin for 2 hrs followed by compound treatment and measured after 8 hrs by Western blot analysis.
For test [16] the target is unchanged. Briefly: PROTAC activity at CRBN/BTK in human Ramos cells assessed as induction of BTK degradation at 100 nM incubated for 24 hrs by Western blot analysis.

Structures are written as SMILES. The source made the active and inactive calls. The rule behind the calls is not given here.

One may read the EC50 as the concentration at which the effect is half-maximal. By Emax is commonly meant the size of the effect at its maximum, as opposed to the concentration needed. With `Nc1ncnc2c1c(-c1ccc(Oc3ccccc3)cc1)nn2C1CCN(C(=O)CN2CCN(CC3CCN(c4cccc5c4C(=O)N(C4CCC(=O)NC4=O)C5=O)CC3)CC2)CC1` (centres undefined), the Activity in test [1] is 91%. Moreover, the EC50 in test [2] was 9.37 nM; in test [6] it was 10.3 nM. Besides, the Emax turned out to be 99.4% in test [3] and 99.5% in test [7]. Also, the result in test [4], in test [5] and in test [8] was Active.

For `Nc1ncnc2c1c(-c1ccc(Oc3ccccc3)cc1)nn2C1CCN(C(=O)CN2CCN(CCOCC(=O)Nc3ccc4c(c3)C(=O)N(C3CCC(=O)NC3=O)C4=O)CC2)CC1` (centres undefined), the Activity in [1] turned out to be 28.5%.

As to `Nc1ncnc2c1c(-c1ccc(Oc3ccccc3)cc1)nn2C1CCN(Cc2ccc(C#CC3CCN(c4cccc5c4C(=O)N(C4CCC(=O)NC4=O)C5=O)CC3)nc2)CC1` (centres undefined), the Activity in [1] worked out at 58.6%. Further, in test [2], the EC50 came to 46.1 nM. In test [3], the maximum response (Emax) was found to be 95%. For the same molecule, the result in test [5] was Active.

Regarding `Nc1ncnc2c1c(-c1ccc(Oc3ccccc3)cc1)nn2C1CCN(CCOCCOCC(=O)Nc2ccc3c(c2)C(=O)N(C2CCC(=O)NC2=O)C3=O)CC1` (centres undefined), in [1], the Activity is 75.7%. In test [2], the EC50 is 63.3 nM. Besides, in [3], the Emax came out at 92.4%.

`Nc1ncnc2c1c(-c1ccc(Oc3ccccc3)cc1)nn2C1CCN(C(=O)c2ccc(N3CCN(c4ccc5c(c4)C(=O)N(C4CCC(=O)NC4=O)C5=O)CC3)nc2)CC1` (centres undefined): the Activity in [1] turned out to be 71.7%. Also, the EC50 in [2] stood at 26.9 nM. For the same molecule, in test [3], the Emax was 97.8%. Further, the result in test [5] was Active.

In the case of `Nc1ncnc2c1c(-c1ccc(Oc3ccccc3)cc1)nn2C1CCN(C(=O)CN2CCN(CC3CCN(c4ccc5c(c4)C(=O)N(C4CCC(=O)NC4=O)C5=O)CC3)CC2)CC1` (centres undefined), the Activity was 99.7% in test [1] and 100% in [11]. The values for the EC50 in test [2] and in test [6] were 6.11 nM and 2.93 nM, respectively. Moreover, the Emax in [3] and in [7] was 99.7% throughout. For the same molecule, the result in [5], in test [9], in test [12], in test [13] and in test [14] was inactive. Also, the result in [10] and in test [15] was Active.

As for `Nc1ncnc2c1c(-c1ccc(Oc3ccccc3)cc1)nn2C1CCN(CC2CN(CC3CN(c4ccc5c(c4)C(=O)N(C4CCC(=O)NC4=O)C5=O)C3)C2)CC1` (centres undefined), the Activity in test [1] was found to be 31.5%.

Take `Nc1ncnc2c1c(-c1ccc(Oc3ccccc3)cc1)nn2C1CCN(C(=O)CN2CCC(CN3CCN(CC#Cc4ccc5c(c4)C(=O)N(C4CCC(=O)NC4=O)C5=O)CC3)CC2)CC1` (centres undefined): in [1], the Activity is 33.6%.

In the case of `Nc1ncnc2c1c(-c1ccc(Oc3ccccc3)cc1)nn2C1CCN(C(=O)CCCN2CCN(CCOCC(=O)Nc3ccc4c(c3)C(=O)N(C3CCC(=O)NC3=O)C4=O)CC2)CC1` (centres undefined), in [1], the Activity came to 40%.

`Nc1ncnc2c1c(-c1ccc(Oc3ccccc3)cc1)nn2C1CCN(C(=O)CN2CCN(CCOCCOCC(=O)Nc3ccc4c(c3)C(=O)N(C3CCC(=O)NC3=O)C4=O)CC2)CC1` (centres undefined): in [1], the Activity turned out to be 38.9%.

For the molecule `Nc1ncnc2c1c(-c1ccc(Oc3ccccc3)cc1)nn2C1CCN(C(=O)CN2CCN(C(=O)CCCC(=O)Nc3ccc4c(c3)C(=O)N(C3CCC(=O)NC3=O)C4=O)CC2)CC1` (centres undefined), the Activity in test [1] was 61.9%.

With `Nc1ncnc2c1c(-c1ccc(Oc3ccccc3)cc1)nn2C1CCN(Cc2ccc(C#CC3CCN(c4ccc5c(c4)C(=O)N(C4CCC(=O)NC4=O)C5=O)CC3)nc2)CC1` (centres undefined), in test [1], the Activity amounted to 62.7%. Further, in test [2], the EC50 is 51.1 nM. In addition, in test [3], the Emax was found to be 97.8%. Moreover, in test [5], the outcome was Active.

`Nc1ncnc2c1c(-c1ccc(Oc3ccccc3)cc1)nn2C1CCN(C(=O)CN2CCN(CC#Cc3ccc4c(c3)C(=O)N(C3CCC(=O)NC3=O)C4=O)CC2)CC1` (centres undefined): the Activity in test [1] stood at 39.5%.

With `Nc1ncnc2c1c(-c1ccc(Oc3ccccc3)cc1)nn2C1CCN(C(=O)CN2CCN(CC3CN(c4cccc5c4C(=O)N(C4CCC(=O)NC4=O)C5=O)C3)CC2)CC1` (centres undefined), in test [1], the Activity worked out at 67.5%. The figures for the EC50 in test [2] and in test [6] were 7.27 nM and 9.06 nM, respectively. Moreover, the Emax worked out at 97.6% in test [3] and 99.7% in test [7]. The outcome in [4] and in test [8] was Active.

With `Nc1ncnc2c1c(-c1ccc(Oc3ccccc3)cc1)nn2C1CCN(CC2CN(c3cccc4c3C(=O)N(C3CCC(=O)NC3=O)C4=O)C2)CC1` (centres undefined), the result in test [16] was inactive.

On to `Nc1ncnc2c1c(-c1ccc(Oc3ccccc3)cc1)nn2C1CCN(CC2CN(CC3CCN(c4cccc5c4C(=O)N(C4CCC(=O)NC4=O)C5=O)CC3)C2)CC1` (centres undefined), for which the Activity in [1] is 36.2%.

As for `Nc1ncnc2c1c(-c1ccc(Oc3ccccc3)cc1)nn2C1CCN(CC2CN(CC3CN(c4cccc5c4C(=O)N(C4CCC(=O)NC4=O)C5=O)C3)C2)CC1` (centres undefined), the Activity in test [1] worked out at 31.3%.

With `Nc1ncnc2c1c(-c1ccc(Oc3ccccc3)cc1)nn2C1CCN(C(=O)CN2CCC(N3CCN(CC#Cc4ccc5c(c4)C(=O)N(C4CCC(=O)NC4=O)C5=O)CC3)CC2)CC1` (centres undefined), the Activity in test [1] turned out to be 57.8%.

Regarding `Nc1ncnc2c1c(-c1ccc(Oc3ccccc3)cc1)nn2C1CCN(C(=O)CN2CCN(C(=O)CCC(=O)Nc3ccc4c(c3)C(=O)N(C3CCC(=O)NC3=O)C4=O)CC2)CC1` (centres undefined), the Activity in test [1] turned out to be 61.5%.

For the molecule `Nc1ncnc2c1c(-c1ccc(Oc3ccccc3)cc1)nn2C1CCN(C(=O)c2ccc(N3CCN(CC#Cc4ccc5c(c4)C(=O)N(C4CCC(=O)NC4=O)C5=O)CC3)nc2)CC1` (centres undefined), the Activity in test [1] is 47.4%.

As for `Nc1ncnc2c1c(-c1ccc(Oc3ccccc3)cc1)nn2C1CCN(C(=O)CCCN2CCN(CCOCCOCC(=O)Nc3ccc4c(c3)C(=O)N(C3CCC(=O)NC3=O)C4=O)CC2)CC1` (centres undefined), in [1], the Activity is 55%.

Consider `Nc1ncnc2c1c(-c1ccc(Oc3ccccc3)cc1)nn2C1CCN(C(=O)CCCN2CCN(C(=O)CCC(=O)Nc3ccc4c(c3)C(=O)N(C3CCC(=O)NC3=O)C4=O)CC2)CC1` (centres undefined), for which, in test [1], the Activity was 41.8%.

As to `Nc1ncnc2c1c(-c1ccc(Oc3ccccc3)cc1)nn2C1CCN(CC2CCN(c3cccc4c3C(=O)N(C3CCC(=O)NC3=O)C4=O)CC2)CC1` (centres undefined), the result in test [16] was inactive.
